Results as given in patent US11453677B2 (priority 2016, dated 2022).

Experiments:
Type in all cases: cell-based
[1] = system: influenza virus H1N1 in MDCK cells; settings: MOI 0.005, 48 hours, neuraminidase activity, read-out: NA_VIR_H1N1 EC50
Excerpt: (§1) Influenza Virus Neuraminidase Assay (NA Assay)

[2] = system: influenza A virus minigenome (PB2, PB1, PA, NP) RNP_Alaska in 293T cells; assay: cells; settings: HEK-293T, 48 h, read-out: RNP_Alaska EC50
[3] = system: influenza virus minigenome (PB2, PB1, PA, NP) RNP_Hubei in 293T cells; assay: cells; settings: unidentified influenza virus, HEK-293T, 48 h, read-out: RNP_Hubei EC50
[4] = system: influenza A virus minigenome (PB2, PB1, PA, NP) RNP_CAL in 293T cells; assay: cells; settings: HEK-293T, 48 h, read-out: RNP_CAL_EC50
[5] = system: influenza virus H3N2 in MDCK cells; settings: MOI 0.005, 48 hours, neuraminidase activity, read-out: NA_VIR_H3N2 EC50
Excerpt: as §1

SMILES | EC50 [1] [nM] | EC50 [2] [nM] | EC50 [3] [nM] | EC50 [4] [nM] | EC50 [5] [nM]
O=c1ccn2c(c1O)-c1ncc(C(F)(F)F)n1C[C@@H]2C(c1ccccc1)c1ccccc1 [Example 58, (S)-6-benzhydryl-11-hydroxy-3-(trifluoromethyl)-5H-imidazo[1,2-a]pyrido[2,1-c]pyrazin-10(6H)-one] | 200 |  |  |  | 
O=c1ccn2c(c1O)-c1ncc(CNC3CCOCC3)n1C[C@@H]2C(c1ccccc1)c1ccccc1 [Example 65, (S)-6-benzhydryl-11-hydroxy-3-(((tetrahydro-2H-pyran-4-yl)amino)methyl)-5,6-dihydro-10H-imidazo[1,2-a]pyrido[2,1-c]pyrazin-10-one] |  | 4800 | 4900 | 3500 | 
C[C@@H](NCc1cnc2n1C[C@H](C(c1ccccc1)c1ccccc1)n1ccc(=O)c(O)c1-2)C(F)(F)F [Example 66, (S)-6-benzhydryl-11-hydroxy-3-((((R)-1,1,1-trifluoropropan-2-yl)amino)methyl)-5,6-dihydro-10H-imidazo[1,2-a]pyrido[2,1-c]pyrazin-10-one] |  | 720 | 630 | 310 | 
O=c1ccn2c(c1O)-c1ncc(CN3CCOCC3)n1C[C@@H]2C(c1ccccc1)c1ccccc1 [Example 67, (S)-6-benzhydryl-11-hydroxy-3-(morpholinomethyl)-5,6-dihydro-10H-imidazo[1,2-a]pyrido[2,1-c]pyrazin-10-one] |  |  |  |  | 10000
CNC(=O)c1cnc2n1C[C@H](C(c1ccccc1)c1ccccc1)n1ccc(=O)c(O)c1-2 [Example 69, (S)-6-benzhydryl-11-hydroxy-N-methyl-10-oxo-5,6-dihydro-10H-imidazo[1,2-a]pyrido[2,1-c]pyrazine-3-carboxamide] |  |  |  |  | > 50000
O=C(NC1CC1)c1cnc2n1C[C@H](C(c1ccccc1)c1ccccc1)n1ccc(=O)c(O)c1-2 [Example 70, (S)-6-benzhydryl-N-cyclopropyl-11-hydroxy-10-oxo-5,6-dihydro-10H-imidazo[1,2-a]pyrido[2,1-c]pyrazine-3-carboxamide] |  | 6400 | 12300 | 1700 | 
COCCNC(=O)c1cnc2n1C[C@H](C(c1ccccc1)c1ccccc1)n1ccc(=O)c(O)c1-2 [Example 71, (S)-6-benzhydryl-11-hydroxy-N-(2-methoxyethyl)-10-oxo-5,6-dihydro-10H-imidazo[1,2-a]pyrido[2,1-c]pyrazine-3-carboxamide] |  |  |  |  | > 50000
O=C(c1cnc2n1C[C@H](C(c1ccccc1)c1ccccc1)n1ccc(=O)c(O)c1-2)N1CCCC1 [Example 72, (S)-6-benzhydryl-11-hydroxy-3-(pyrrolidine-1-carbonyl)-5,6-dihydro-10H-imidazo[1,2-a]pyrido[2,1-c]pyrazin-10-one] |  | 3000 | 5500 | 1700 | 
O=c1ccn2c(c1O)-c1nccn1CN2C1c2ccccc2CSc2ccccc21 (stereo not drawn) [Example 74, 6-(6,11-dihydrodibenzo[b,e]thiepin-11-yl)-11-hydroxy-5,6-dihydro-10H-imidazo[1,2-d]pyrido[2,1-f][1,2,4]triazin-10-one] |  | 130 | 260 | 84 | 
CC1(C)N(C(c2ccccc2)c2ccccc2)n2ccc(=O)c(O)c2-c2nccn21 [Example 75, 6-benzhydryl-11-hydroxy-5,5-dimethyl-5,6-dihydro-10H-imidazo[1,2-d]pyrido[2,1-f][1,2,4]triazin-10-one] |  | 480 | 400 | 300 | 
O=c1ccn2c(c1O)-c1nccn1C(C1CC1)N2C1c2ccccc2CSc2ccccc21 (stereo not drawn) [Example 76, 5-cyclopropyl-6-(6,11-dihydrodibenzo[b,e]thiepin-11-yl)-11-hydroxy-5,6-dihydro-10H-imidazo[1,2-d]pyrido[2,1-f][1,2,4]triazin-10-one] |  | 430 | 670 | 160 | 
CCC1N(C(c2ccccc2)c2ccccc2)n2ccc(=O)c(O)c2-c2nccn21 (stereo not drawn) [Example 78, 6-benzhydryl-5-ethyl-11-hydroxy-5,6-dihydro-10H-imidazo[1,2-d]pyrido[2,1-f][1,2,4]triazin-10-one] |  | 250 | 340 | 180 | 
O=c1ccn2c(c1O)-c1nccn1C1(COC1)N2C1c2ccccc2CSc2ccccc21 (stereo not drawn) [Example 80, 6-(6,11-dihydrodibenzo[b,e]thiepin-11-yl)-11-hydroxy-6H,10H-spiro[imidazo[1,2-d]pyrido[2,1-f][1,2,4]triazine-5,3′-oxetan]-10-one] |  | 170 | 27 | 10 | 
Cn1cnc2c1CN(C(c1ccccc1)c1ccccc1)n1ccc(=O)c(O)c1-2 [Example 82, 5-benzhydryl-10-hydroxy-3-methyl-4,5-dihydroimidazo[4,5-d]pyrido[1,2-b]pyridazin-9(3H)-one] | 1000 |  |  |  | 4000
O=c1ccn2c(c1O)-c1ncoc1CN2C(c1ccccc1)c1ccccc1 [Example 83, 5-benzhydryl-10-hydroxy-4,5-dihydro-9H-oxazolo[4,5-d]pyrido[1,2-b]pyridazin-9-one] |  | 960 | 730 | 970 | 
O=c1ccn2c(c1O)-c1ocnc1CN2C(c1ccccc1)c1ccccc1 [Example 84, 5-benzhydryl-10-hydroxy-4,5-dihydro-9H-oxazolo[5,4-d]pyrido[1,2-b]pyridazin-9-one] |  | 14000 | 16000 | 11000 | 
CC(=O)Oc1c2n(ncc1=O)[C@@H](C(c1ccc(F)cc1)c1ccc(F)cc1)Cn1ccnc1-2 [Example 85, (S)-6-(bis(4-fluorophenyl)methyl)-10-oxo-5,6-dihydro-10H-imidazo[2′,1′:3,4]pyrazino[1,2-b]pyridazin-11-yl acetate] |  | 19 | 49 | 22 | 
CC(C)C(=O)Oc1c2n(ncc1=O)[C@@H](C(c1ccc(F)cc1)c1ccc(F)cc1)Cn1ccnc1-2 [Example 86, (S)-6-(bis(4-fluorophenyl)methyl)-10-oxo-5,6-dihydro-10H-imidazo[2′,1′:3,4]pyrazino[1,2-b]pyridazin-11-yl Isobutyrate] |  | 30 | 47 | 21 | 
CC(C)CC(=O)Oc1c2n(ncc1=O)[C@@H](C(c1ccc(F)cc1)c1ccc(F)cc1)Cn1ccnc1-2 [Example 87, (S)-6-(bis(4-fluorophenyl)methyl)-10-oxo-5,6-dihydro-10H-imidazo[2′,1′:3,4]pyrazino[1,2-b]pyridazin-11-yl 3-methylbutanoate] |  | 27 | 43 | 21 | 
COC(=O)OCOc1c2n(ncc1=O)[C@@H](C(c1ccc(F)cc1)c1ccc(F)cc1)Cn1ccnc1-2 [Example 88, (S)-((6-(bis(4-fluorophenyl)methyl)-10-oxo-5,6-dihydro-10H-imidazo[2′,1′:3,4]pyrazino[1,2-b]pyridazin-11-yl)oxy)methyl methyl Carbonate] |  | 32 | 89 | 42 | 
